From PMC5713674, “Meditope–Fab interaction: threading the hole” (Acta Crystallographica. Section F, Structural Biology …, 2017)
pKd: −log10 of the molar value. Where two headings read alike, the source gives them in different places.

Key:
cetuximab [1] = assay: Surface plasmon resonance (Biacore T100) binding kinetics of meditope variants to immobilised cetuximab IgG; conditions: SPR, 25°C, at pH 5.5
cetuximab [2] = assay: as above; conditions: 25°C; for k a / k d: pH 7.4, HBS-EP+
Experimental: All surface plasmon resonance (SPR) experiments were performed on a GE Biacore T100 instrument (GE Healthcare) at 25°C as described previously (Bzymek, Avery et al., 2016[▸]; Bzymek, Ma et al., 2016[▸]). Briefly, cetuximab IgG ligand was amine-coupled to CM5 chips using acetate buffer pH 5.5 at a density of 5000 RU. Analytes were prepared in GE buffer HBS-EP+ [10 mM HEPES pH 7.4, 150 mM NaCl, 3 mM EDTA, 0.05%(v/v) surfactant P20]. Kinetics experiments were carried out at a flow rate of 30 µl min^−1 using HBS-EP+ as both the running and regeneration buffer. Experimental data were processed using Biacore T100 Evaluation software v.2.0.1. Purified peptides were dissolved in water and extensively dialyzed to remove any residual TFA, and their concentration was determined as described previously (Bzymek, Ma et al., 2016[▸]).

cetuximab [3] = system: cetuximab; design: method as in Bzymek, Ma et al. (2016); conditions: SPR, 25°C, pH 7.4; ref Bzymek, Ma et al. (2016); cited from earlier work

Compound | k a (cetuximab [2]; SPR) | k d (cetuximab [2]; SPR) | further results
CC(C)C[C@@H]1NC(=O)[C@H](CCCNC(=N)N)NC(=O)[C@H](CCCNC(=N)NCCC(=O)O)NC(=O)[C@H]([C@@H](C)O)NC(=O)[C@H](CO)NC(=O)[C@H](CC(C)C)NC(=O)[C@H](CC(=O)O)NC(=O)[C@H](Cc2ccccc2)NC(=O)[C@H](CCC(N)=O)NC(=O)CCCCCCNC(=O)[C@H](CCCCN)NC1=O [(AHA)QFDLSTR(EtCOOH)RLK, aminoheptanoic acid-linked N-carboxyethylarginine meditope variant] | – | – | pKd (cetuximab [1]): 4.49; k a (cetuximab [1]): 0.06 M^−1 s^−1 × 10^4; k d (cetuximab [1]): 0.020 s⁻¹
CC(C)C[C@@H]1NC(=O)[C@H](CCCNC(=N)N)NC(=O)[C@H](CCCNC(=N)N)NC(=O)[C@H]([C@@H](C)O)NC(=O)[C@H](CO)NC(=O)[C@H](CC(C)C)NC(=O)[C@H](CC(=O)O)NC(=O)[C@H](Cc2ccccc2)NC(=O)[C@H](CCC(N)=O)NC(=O)CCCCCCNC(=O)[C@H](CCCCN)NC1=O [reference compound] | 2.5 M^−1 s^−1 × 10^4 | 0.046 s⁻¹ | k a (on-rate) (cetuximab [2]; SPR, pH 7.4): 25000 M⁻¹ s⁻¹; k a (cetuximab [1]): 2.0 M^−1 s^−1 × 10^4; k d (cetuximab [1]): 0.075 s⁻¹
CQFDLSTRRLKC | – | – | k a (cetuximab [3]): 8.8 M^−1 s^−1 × 10^4

Continued, in another order:

k a (cetuximab [2]; SPR) | k d (cetuximab [2]; SPR) | Compound | further results
1.2 M^−1 s^−1 × 10^4 | 0.110 s⁻¹ | CC(C)C[C@@H]1NC(=O)[C@H](CCCNC(=N)N)NC(=O)[C@H](CCCNC(=N)NCCCN)NC(=O)[C@H]([C@@H](C)O)NC(=O)[C@H](CO)NC(=O)[C@H](CC(C)C)NC(=O)[C@H](CC(=O)O)NC(=O)[C@H](Cc2ccccc2)NC(=O)[C@H](CCC(N)=O)NC(=O)CCCCCCNC(=O)[C@H](CCCCN)NC1=O [(AHA)QFDLSTR(PrNH2)RLK, aminoheptanoic acid-linked N-(3-aminopropyl)-L-arginine meditope variant] | –
1.2 M^−1 s^−1 × 10^4 | 0.027 s⁻¹ | CC(C)C[C@@H]1NC(=O)[C@H](CCCNC(=N)N)NC(=O)[C@H](CCCNC(=N)NCCCO)NC(=O)[C@H]([C@@H](C)O)NC(=O)[C@H](CO)NC(=O)[C@H](CC(C)C)NC(=O)[C@H](CC(=O)O)NC(=O)[C@H](Cc2ccccc2)NC(=O)[C@H](CCC(N)=O)NC(=O)CCCCCCNC(=O)[C@H](CCCCN)NC1=O [(AHA)QFDLSTR(PrOH)RLK, aminoheptanoic acid-linked N-(3-hydroxypropyl)-L-arginine meditope variant] | increase in the half-life of the complex over the nonmodified AHA-cyclized meditope (cetuximab [2]; t = ln(2)/k d, HBS-EP+ pH 7.4): 1.7 fold
2.2 M^−1 s^−1 × 10^4 | 0.060 s⁻¹ | CCCCNC(=N)NCCC[C@@H]1NC(=O)[C@H]([C@@H](C)O)NC(=O)[C@H](CO)NC(=O)[C@H](CC(C)C)NC(=O)[C@H](CC(=O)O)NC(=O)[C@H](Cc2ccccc2)NC(=O)[C@H](CCC(N)=O)NC(=O)CCCCCCNC(=O)[C@H](CCCCN)NC(=O)[C@H](CC(C)C)NC(=O)[C@H](CCCNC(=N)N)NC1=O [(AHA)QFDLSTR(nBu)RLK, aminoheptanoic acid-linked n-butylarginine meditope variant] | change of half-life of the complex versus nonmodified AHA-cyclized meditope (in words) (cetuximab [2]; t = ln(2)/k d, HBS-EP+ pH 7.4): slightly reduced
0.93 M^−1 s^−1 × 10^4 | 0.079 s⁻¹ | CCCCCCCCNC(=N)NCCC[C@@H]1NC(=O)[C@H]([C@@H](C)O)NC(=O)[C@H](CO)NC(=O)[C@H](CC(C)C)NC(=O)[C@H](CC(=O)O)NC(=O)[C@H](Cc2ccccc2)NC(=O)[C@H](CCC(N)=O)NC(=O)CCCCCCNC(=O)[C@H](CCCCN)NC(=O)[C@H](CC(C)C)NC(=O)[C@H](CCCNC(=N)N)NC1=O [(AHA)QFDLSTR(nOc)RLK, aminoheptanoic acid-linked n-octylarginine meditope variant] | change of half-life of the complex versus nonmodified AHA-cyclized meditope (in words) (cetuximab [2]; t = ln(2)/k d, HBS-EP+ pH 7.4): slightly reduced
